Patent publication US6559140B2 (Abbott Laboratories, priority 2000, dated 2003)

Molecular target: H3 receptor (Rattus norvegicus, UniProt Q9QYN8)
Experiment: H3 receptor binding, (3H)-N-α-methylhistamine displacement in rat cortical membranes
Conditions: male Sprague-Dawley rat brain cortical membranes, 30 minutes at 25° C., Cheng-Prusoff, geometric mean values of 2-10 separate experiments
Method: Briefly, male Sprague-Dawley rat brain cortices were homogenized (1 g tissue/10 mL buffer) in 50 mM Tris-HCl/5 mM EDTA containing protease inhibitor cocktail (Calbiochem) using a polytron set at 20,500 rpm. Homogenates were centrifuged for 20 minutes at 40,000×g. The supernatant was decanted, and pellets were weighed. The pellet was resuspended by polytron homogenization in 40 mL 50 mM Tris-HCl/5 mM EDTA with protease inhibitors and centrifuged for 20 minutes at 40,000×g. […] Test compounds were added to the incubation mixtures prior to initiating the incubation assay by addition of the membranes. Thioperamide (3 μM) was used to determine nonspecific binding. Binding incubations were conducted for 30 minutes at 25° C. and terminated by addition of 2 mL of ice cold 50 mM Tris-HCl (H 7.7) and filtration through 0.3% polyethylenimine-soaked Unifilter plates (Packard). These filters were washed 4 additional times with 2 mL of ice-cold 50 mM Tris-HCl and dried for 1 hour. Radioactivity was determined using liquid scintillation counting techniques. Results were analyzed by Hill transformation and Ki values were determined using the Cheng-Prusoff equation.

Sequence of H3 receptor (Q9QYN8 1-397 isoform Q9QYN8-3): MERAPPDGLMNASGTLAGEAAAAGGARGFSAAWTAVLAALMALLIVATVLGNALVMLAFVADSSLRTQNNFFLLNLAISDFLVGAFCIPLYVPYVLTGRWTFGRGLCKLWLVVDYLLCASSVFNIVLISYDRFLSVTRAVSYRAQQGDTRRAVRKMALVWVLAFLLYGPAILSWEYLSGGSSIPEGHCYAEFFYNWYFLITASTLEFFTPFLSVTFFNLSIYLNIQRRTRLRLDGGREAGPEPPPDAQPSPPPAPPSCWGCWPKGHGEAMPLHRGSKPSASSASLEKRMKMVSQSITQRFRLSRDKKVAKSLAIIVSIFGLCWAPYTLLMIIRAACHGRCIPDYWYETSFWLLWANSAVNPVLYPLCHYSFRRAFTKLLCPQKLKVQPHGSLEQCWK

| SMILES | Ki |
| --- | --- |
| C[C@@H](NC(=O)c1ccc(Cl)c(Cl)c1)C(=O)N1CCN(CCCOc2ccc(-c3noc(CC4CCCC4)n3)c(F)c2)CC1 [Example 176, 3,4-dichloro-N-{(1R)-2-[4-(3-{4-[5-(cyclopentylmethyl)-1,2,4-oxadiazol-3-yl]-3-fluorophenoxy}propyl)-1-piperazinyl]-1-methyl-2-oxoethyl}benzamide] | 1.22 nM |
| CC(C)C(=O)N[C@H](C)C(=O)N1CCCN(CCCOc2ccc(-c3noc(CC4CCCC4)n3)c(F)c2)CC1 [Example 177, N-{(1R)-2-[4-(3-{4-[5-(cyclopentylmethyl)-1,2,4-oxadiazol-3-yl]-3-fluorophenoxy}propyl)-1,4-diazepan-1-yl]-1-methyl-2-oxoethyl}-2-methylpropanamide] | 1.78 nM |
| C[C@@H](NC(=O)c1ccc(Cl)cc1)C(=O)N1CCCN(CCCOc2ccc(-c3noc(CC4CCCC4)n3)c(F)c2)CC1 [Example 178, 4-chloro-N-{(1R)-2-[4-(3-{4-[5-(cyclopentylmethyl)-1,2,4-oxadiazol-3-yl]-3-fluorophenoxy}propyl)-1,4-diazepan-1-yl]-1-methyl-2-oxoethyl}benzamide] | 8.2 nM |
| C[C@@H](NC(=O)c1ccc(C#N)cc1)C(=O)N1CCCN(CCCOc2ccc(-c3noc(CC4CCCC4)n3)c(F)c2)CC1 [Example 179, 4′-cyano-N-{(1R)-2-[4-(3-{4-[5-(cyclopentylmethyl)-1,2,4-oxadiazol-3-yl]-3-fluorophenoxy}propyl)-1,4-diazepan-1-yl]-1-methyl-2-oxoethyl}benzamide] | 1.5 nM |
| C[C@@H](NC(=O)c1ccc(N(C)C)cc1)C(=O)N1CCN(CCCOc2ccc(-c3noc(CC4CCCC4)n3)c(F)c2)CC1 [Example 180, N-{(1R)-2-[4-(3-{4-[5-(cyclopentylmethyl)-1,2,4-oxadiazol-3-yl]-3-fluorophenoxy}propyl)-1-piperazinyl]-1-methyl-2-oxoethyl}-4-(dimethylamino)benzamide] | 2.37 nM |
| C[C@@H](NC(=O)c1cccnc1)C(=O)N1CCN(CCCOc2ccc(-c3noc(CC4CCCC4)n3)c(F)c2)CC1 [Example 181, N-{(1R)-2-[4-(3-{4-[5-(cyclopentylmethyl)-1,2,4-oxadiazol-3-yl]-3-fluorophenoxy}propyl)-1-piperazinyl]-1-methyl-2-oxoethyl}nicotinamide] | 1.67 nM |
| C[C@@H](NC(=O)c1ccccc1Cl)C(=O)N1CCN(CCCOc2ccc(-c3noc(CC4CCCC4)n3)c(F)c2)CC1 [Example 182, 2-chloro-N-{(1R)-2-[4-(3-{4-[5-(cyclopentylmethyl)-1,2,4-oxadiazol-3-yl]-3-fluorophenoxy}propyl)-1-piperazinyl]-1-methyl-2-oxoethyl}benzamide] | 2.78 nM |
| C[C@@H](NC(=O)c1ccc2c(c1)OCO2)C(=O)N1CCN(CCCOc2ccc(-c3noc(CC4CCCC4)n3)c(F)c2)CC1 [Example 183] | 2.72 nM |
| CC(C)Oc1ccc(C(=O)N[C@H](C)C(=O)N2CCN(CCCOc3ccc(-c4noc(CC5CCCC5)n4)c(F)c3)CC2)cc1 [Example 184, N-{(1R)-2-[4-(3-{4-[5-(cyclopentylmethyl)-1,2,4-oxadiazol-3-yl]-3-fluorophenoxy}propyl)-1-piperazinyl]-1-methyl-2-oxoethyl}-4-isopropoxybenzamide] | 10.5 nM |
| COc1ccc(C(=O)N[C@H](C)C(=O)N2CCN(CCCOc3ccc(-c4noc(CC5CCCC5)n4)c(F)c3)CC2)cc1F [Example 185, N-{(1R)-2-[4-(3-{4-[5-(cyclopentylmethyl)-1,2,4-oxadiazol-3-yl]-3-fluorophenoxy}propyl)-1-piperazinyl]-1-methyl-2-oxoethyl}-3-fluoro-4-methoxybenzamide] | 3.28 nM |
| C[C@@H](NC(=O)c1ccc(C(=O)O)cc1)C(=O)N1CCN(CCCOc2ccc(-c3noc(CC4CCCC4)n3)c(F)c2)CC1 [Example 186, 4-[({(1R)-2-[4-(3-{4-[5-(cyclopentylmethyl)-1,2,4-oxadiazol-3-yl]-3-fluorophenoxy}propyl)-1-piperazinyl]-1-methyl-2-oxoethyl}amino)carbonyl]benzoic acid] | 8.82 nM |
| Cc1cccc(-c2nc(-c3ccc(OCCCN4CCN(C(=O)[C@@H](C)NC(=O)c5cccs5)CC4)cc3F)no2)c1 [Example 187, N-{(1R)-2-[4-(3-{3-fluoro-4-[5-(3-methylphenyl)-1,2,4-oxadiazol-3-yl]phenoxy}propyl)-1-piperazinyl]-1-methyl-2-oxoethyl}-2-thiophenecarboxamide] | 26.2 nM |
| C[C@@H](NC(=O)c1cccs1)C(=O)N1CCN(CCCOc2ccc(-c3noc(-c4cccc(C#N)c4)n3)c(F)c2)CC1 [Example 188, N-{(1R)-2-[4-(3-{4-[5-(3-cyanophenyl)-1,2,4-oxadiazol-3-yl]-3-fluorophenoxy}propyl)-1-piperazinyl]-1-methyl-2-oxoethyl}-2-thiophenecarboxamide] | 4.23 nM |
| C[C@@H](NC(=O)c1cccs1)C(=O)N1CCN(CCCOc2ccc(-c3noc(-c4cc(Cl)cc(Cl)c4)n3)c(F)c2)CC1 [Example 189, N-{(1R)-2-[4-(3-{4-[5-(3,5-dichlorophenyl)-1,2,4-oxadiazol-3-yl]-3-fluorophenoxy}propyl)-1-piperazinyl]-1-methyl-2-oxoethyl}-2-thiophenecarboxamide] | 51.3 nM |
| C[C@@H](NC(=O)c1cccs1)C(=O)N1CCN(CCCOc2ccc(-c3noc(CCC(=O)N4CCCC4)n3)c(F)c2)CC1 [Example 190, N-((1R)-2-{4-[3-(3-fluoro-4-{5-[3-oxo-3-(1-pyrrolidinyl)propyl]-1,2,4-oxadiazol-3-yl}phenoxy)propyl]-1-piperazinyl}-1-methyl-2-oxoethyl)-2-thiophenecarboxamide] | 7.69 nM |
| CCOC(=O)c1nc(-c2ccc(OCCCN3CCN(C(=O)[C@@H](C)NC(=O)c4cccs4)CC3)cc2F)no1 [Example 191, Ethyl 3-{2-fluoro-4-[3-(4-{(2R)-2-[(2-thienylcarbonyl)amino]propanoyl}-1-piperazinyl)propoxy]phenyl}-1,2,4-oxadiazole-5-carboxylate] | 15 nM |
| Cc1ccccc1C(=O)N[C@H](C)C(=O)N1CCN(CCCOc2ccc(C(=O)C3CC3)cc2)CC1 [Example 192, N-[(1R)-2-(4-{3-[4-(cyclopropylcarbonyl)phenoxy]propyl}-1-piperazinyl)-1-methyl-2-oxoethyl]-2-methylbenzamide] | 1 nM |
| COc1cccc(C(=O)N[C@H](C)C(=O)N2CCN(CCCOc3ccc(C(=O)C4CC4)cc3)CC2)c1 [Example 193, N-[(1R)-2-(4-{3-[4-(cyclopropylcarbonyl)phenoxy]propyl}-1-piperazinyl)-1-methyl-2-oxoethyl]-3-methoxybenzamide] | 1.11 nM |
| C[C@@H](NC(=O)c1ccc(Br)cc1)C(=O)N1CCN(CCCOc2ccc(C(=O)C3CC3)cc2)CC1 [Example 194, 4-bromo-N-[(1R)-2-(4-{3-[4-(cyclopropylcarbonyl)phenoxy]propyl}-1-piperazinyl)-1-methyl-2-oxoethyl]benzamide] | 1.18 nM |
| C[C@@H](NC(=O)c1ccc(Oc2ccccc2)cc1)C(=O)N1CCN(CCCOc2ccc(C(=O)C3CC3)cc2)CC1 [Example 195] | 1.37 nM |
| Cc1cc(C)cc(C(=O)N[C@H](C)C(=O)N2CCN(CCCOc3ccc(C(=O)C4CC4)cc3)CC2)c1 [Example 196, N-[(1R)-2-(4-{3-[4-(cyclopropylcarbonyl)phenoxy]propyl}-1-piperazinyl)-1-methyl-2-oxoethyl]-3,5-dimethylbenzamide] | 2.08 nM |
